Data reported in patent US6482806B1, “Product of heat treatment of uronic acid, food, drink, or drug including the product” (Takara Shuzo Co., Ltd., priority 1996, dated 2002).
*1 amine or outer side, *2 acyl side, *3 side chain or, on linkers, in order; H or OH if unused. Where a SMILES comes first, the peptide text is derived from it. Bridges are numbered along the chain shown (N, C = ends). Roman numbers before positions name the chains, in order. [ ]: non-standard residue; d: D form. Actinocin(9to1) = Cc1c2oc3c(C)ccc(C(=O)[*:1])c3nc-2c(C(=O)[*:2])c(N)c1=O; NMeV = CN[C@H](C(=O)O)C(C)C; Sar = CNCC(=O)O

Key:
[1] = tested on: human promyelocytic leukemia cells (HL-60) (ATCC CCL-240); test: Apoptosis-inducing activity to HL-60 cells, microscope and trypan blue count (method of Example 7); format: cell-based; conditions: 0.05 ml of aqueous solution (0.1 mg/ml) added, 16 hours
Experimental: Thus, HL-60 (ATCC CCL-240) were incubated in an RPMI 1640 medium (manufactured by Nissui) containing 10% of fetal calf serum (manufactured by Gibco) treated at 56° C. for 30 minutes and then suspended in an RPMI 1640 medium to make the cell concentration 2.5×10^5 cells/4.5 ml.
To 4.5 ml of this suspension was added 0.5 ml of the above-mentioned heat-treated pectin solution and the mixture was incubated at 37° C. for 16 hours in the presence of 5% of carbon dioxide. For the sake of confirmation, the same incubation as above was conducted except that 0.05 ml of an aqueous solution (0.1 mg/ml) of actinomycin D (manufactured by Sigma) which was known as an apoptosis-inducing reagent and 0.45 ml of a physiological saline solution were used instead of the above-mentioned heat-treated pectin solution.
Incidentally, in the control where the cells to which 0.5 ml of a physiological saline solution was added were incubated, such phenomena were not observed.
Further, to the cell suspension was added twice as much by volume of a 0.4% aqueous solution of trypan blue and an observation was conducted under an optical microscope whereby trypan blue was excreted and colorless cells and blue-colored cells were counted as viable and dead cells, respectively.

[2] = tested on: Human promyelocytic leukemia cells HL-60 (ATCC CRL-1964); test: Apoptosis induction in HL-60 cells, optical microscope (Example 1); format: cell-based; conditions: 0.1 ml of aqueous solution (0.1 mg/ml) added, 16 hours
Experimental: Human promyelocytic leukemia cells HL-60 (ATCC CRL-1964) were incubated in an RPMI 1640 medium (manufactured by Nissui) containing 10% of fetal calf serum (manufactured by Gibco) treated at 56° C. for 30 minutes and then suspended in an ASF 104 medium (manufactured by Ajinomoto) to make the cell concentration 5×10^5cells/9 ml.
To this suspension was added 1 ml of the heat-treated pectin solution and the mixture was incubated at 37° C. for 16 hours in the presence of 5% of carbon dioxide. For the sake of confirmation, the same incubation as above was conducted except that 0.1 ml of aqueous solution (0.1 mg/ml) of actinomycin D (manufactured by Sigma) which was known as an apoptosis-inducing reagent and 0.9 ml of a physiological saline solution were used instead of the above-mentioned pectin solution.
Incidentally, in the control where the cells to which 1 ml of physiological saline solution was added were incubated, such phenomena were not observed.

SMILES: Cc1c2oc3c(C)ccc(C(=O)N[C@@H]4C(=O)N[C@H](C(C)C)C(=O)N5CCC[C@H]5C(=O)N(C)CC(=O)N(C)[C@@H](C(C)C)C(=O)O[C@@H]4C)c3nc-2c(C(=O)N[C@@H]2C(=O)N[C@H](C(C)C)C(=O)N3CCC[C@H]3C(=O)N(C)CC(=O)N(C)[C@@H](C(C)C)C(=O)O[C@@H]2C)c(N)c1=O [actinomycin D] (I: T[dV]P[Sar][NMeV] / II: T[dV]P[Sar][NMeV]; ester I:1-I:C, II:1-II:C; linker I:N-II:N via Actinocin(9to1))
- condensation of nuclei, contraction of cells and production of apoptotic body [1]: condensation of nuclei, contraction of cells and production of apoptotic body were confirmed
- condensation of nuclei, contraction of cells and production of apoptotic body [2]: condensation of nuclei, contraction of cells and production of apoptotic body were confirmed
